Experimental data taken from the supplement of paper PMC9663587.

How the values were obtained:
Flavopiridol [1] = compound: T1, CN1CC[C@H](c2c(O)cc(O)c3c(=O)cc(-c4ccccc4Cl)oc23)[C@H](O)C1 [Flavopiridol]; experiment: increase in dead-cell fraction, 72 h; higher = more death;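 further: breast cancer cell lines in 384-well plates, stained with Hoechst plus LIVE/DEAD far red dye and imaged, cells above an LDR intensity threshold counted dead, Hoechst-negative corpses included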
LEE011/Ribociclib [2] = compound: T2, CN(C)C(=O)c1cc2cnc(Nc3ccc(N4CCNCC4)cn3)nc2n1C1CCCC1 [LEE011/Ribociclib]; experiment: as above
[3] = compound: CCN1CCN(Cc2ccc(Nc3ncc(F)c(-c4cc(F)c5nc(C)n(C(C)C)c5c4)n3)nc2)CC1; experiment: as above
[4] = compound: CC(=O)c1c(C)c2cnc(Nc3ccc(N4CCNCC4)cn3)nc2n(C2CCCC2)c1=O; experiment: as above
Flavopiridol [5] = compound: T1, Flavopiridol; experiment: GR value, 72 h; higher = faster growth (1 = untreated, <0 = killing);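 further: breast cancer and non-malignant breast epithelial lines, nine half-log doses, viable cells counted by Hoechst and LIVE/DEAD dye imaging versus time-zero plates and DMSO controls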
LEE011/Ribociclib [6] = compound: T2, LEE011/Ribociclib; experiment: as above
[7] = compound: CCN1CCN(Cc2ccc(Nc3ncc(F)c(-c4cc(F)c5nc(C)n(C(C)C)c5c4)n3)nc2)CC1; experiment: as above
THZ1 = compound: CN(C)C/C=C/C(=O)Nc1ccc(C(=O)Nc2cccc(Nc3ncc(Cl)c(-c4c[nH]c5ccccc45)n3)c2)cc1 [THZ1]; experiment: as above
[8] = compound: CC(=O)c1c(C)c2cnc(Nc3ccc(N4CCNCC4)cn3)nc2n(C2CCCC2)c1=O; experiment: as above
BSJ-03-123 = compound: CC(=O)c1c(C)c2cnc(Nc3ccc(N4CCN(CCOCCOCCOCCNC(=O)COc5cccc6c5C(=O)N(C5CCC(=O)NC5=O)C6=O)CC4)cn3)nc2n(C2CCCC2)c1=O [BSJ-03-123]; experiment: as above
Neratinib/HKI272 = compound: CCOc1cc2ncc(C#N)c(Nc3ccc(OCc4ccccn4)c(Cl)c3)c2cc1NC(=O)/C=C/CN(C)C [Neratinib/HKI272]; experiment: as above
[9] = compound: CCc1cnn2c(NCc3ccc[n+]([O-])c3)cc(N3CCCC[C@H]3CCO)nc12; experiment: as above

In the case of HCC1954, the “increase in dead-cell fraction” value (Flavopiridol [1]; 0.0001 µM) is reported as 0.0057, the “increase in dead-cell fraction” value (Flavopiridol [1]; 0.0003162 µM) is reported as 0.0003 and the “increase in dead-cell fraction” value (Flavopiridol [1]; 0.001 µM) is reported as 0.0047. The “increase in dead-cell fraction” value (Flavopiridol [1]; 0.003162 µM) was 0.0096, the “increase in dead-cell fraction” value (Flavopiridol [1]; 0.01 µM) was 0.0025 and the “increase in dead-cell fraction” value (Flavopiridol [1]; 0.03162 µM) was 0.0079. For the same cell line, the “increase in dead-cell fraction” value (Flavopiridol [1]; 0.1 µM) was 0.03, the “increase in dead-cell fraction” value (Flavopiridol [1]; 0.3162 µM) was 0.143 and the “increase in dead-cell fraction” value (Flavopiridol [1]; 1 µM) was 0.733. For the same cell line, the “increase in dead-cell fraction” value (LEE011/Ribociclib [2]; 0.001 µM) was 0.0048, the “increase in dead-cell fraction” value (LEE011/Ribociclib [2]; 0.003162 µM) was 0.0062 and the “increase in dead-cell fraction” value (LEE011/Ribociclib [2]; 0.01 µM) was -0.0065. For the same cell line, the “increase in dead-cell fraction” value (LEE011/Ribociclib [2]; 0.03162 µM) was 0.0067, the “increase in dead-cell fraction” value (LEE011/Ribociclib [2]; 0.1 µM) was 0.006 and the “increase in dead-cell fraction” value (LEE011/Ribociclib [2]; 0.3162 µM) was 0.0179. The “increase in dead-cell fraction” value (LEE011/Ribociclib [2]; 1 µM) was 0.0102, the “increase in dead-cell fraction” value (LEE011/Ribociclib [2]; 3.162 µM) was 0.0144 and the “increase in dead-cell fraction” value (LEE011/Ribociclib [2]; 10 µM) was 0.0111. For the same cell line, the “increase in dead-cell fraction” value ([3]; 0.001 µM) was -0.0023, the “increase in dead-cell fraction” value ([3]; 0.003162 µM) was -0.0166 and the “increase in dead-cell fraction” value ([3]; 0.01 µM) was -0.0193. For the same cell line, the “increase in dead-cell fraction” value ([3]; 0.03162 µM) was -0.0017, the “increase in dead-cell fraction” value ([3]; 0.1 µM) was -0.0058 and the “increase in dead-cell fraction” value ([3]; 0.3162 µM) was -0.0054. For the same cell line, the “increase in dead-cell fraction” value ([3]; 1 µM) was 0.0303, the “increase in dead-cell fraction” value ([3]; 3.162 µM) was 0.11 and the “increase in dead-cell fraction” value ([3]; 10 µM) was 0.683. The “increase in dead-cell fraction” value ([4]; 0.0003162 µM) was -0.0089, the “increase in dead-cell fraction” value ([4]; 0.001 µM) was -0.001 and the “increase in dead-cell fraction” value ([4]; 0.003162 µM) was -0.0131. The “increase in dead-cell fraction” value ([4]; 0.01 µM) was -0.0027, the “increase in dead-cell fraction” value ([4]; 0.03162 µM) was -0.0121 and the “increase in dead-cell fraction” value ([4]; 0.1 µM) was -0.0026. The “increase in dead-cell fraction” value ([4]; 0.3162 µM) was -0.0021, the “increase in dead-cell fraction” value ([4]; 1 µM) was -0.0019 and the “increase in dead-cell fraction” value ([4]; 3.162 µM) was 0.0043. For the same cell line, the GR value (Flavopiridol [5]; 0.0001 µM) was 1.01 GR, the GR value (Flavopiridol [5]; 0.0003162 µM) was 0.967 GR and the GR value (Flavopiridol [5]; 0.001 µM) was 0.962 GR. It also gave a GR value (Flavopiridol [5]; 0.003162 µM) of 0.996 GR, a GR value (Flavopiridol [5]; 0.01 µM) of 0.907 GR and a GR value (Flavopiridol [5]; 0.03162 µM) of 0.928 GR. For the same cell line, the GR value (Flavopiridol [5]; 0.1 µM) was 0.613 GR, the GR value (Flavopiridol [5]; 0.3162 µM) was 0.0144 GR and the GR value (Flavopiridol [5]; 1 µM) was -0.52 GR. It also gave a GR value (LEE011/Ribociclib [6]; 0.001 µM) of 0.804 GR, a GR value (LEE011/Ribociclib [6]; 0.003162 µM) of 0.771 GR and a GR value (LEE011/Ribociclib [6]; 0.01 µM) of 0.811 GR. It also gave a GR value (LEE011/Ribociclib [6]; 0.03162 µM) of 0.771 GR, a GR value (LEE011/Ribociclib [6]; 0.1 µM) of 0.655 GR and a GR value (LEE011/Ribociclib [6]; 0.3162 µM) of 0.609 GR. For the same cell line, the GR value (LEE011/Ribociclib [6]; 1 µM) was 0.654 GR, the GR value (LEE011/Ribociclib [6]; 3.162 µM) was 0.687 GR and the GR value (LEE011/Ribociclib [6]; 10 µM) was 0.539 GR. It also gave a GR value ([7]; 0.001 µM) of 1.01 GR, a GR value ([7]; 0.003162 µM) of 0.941 GR and a GR value ([7]; 0.01 µM) of 0.844 GR. For the same cell line, the GR value ([7]; 0.03162 µM) was 0.698 GR, the GR value ([7]; 0.1 µM) was 0.584 GR and the GR value ([7]; 0.3162 µM) was 0.503 GR. For the same cell line, the GR value ([7]; 1 µM) was 0.36 GR, the GR value ([7]; 3.162 µM) was 0.193 GR and the GR value ([7]; 10 µM) was -0.5 GR. For the same cell line, the GR value (THZ1; 0.0001 µM) was 1.03 GR, the GR value (THZ1; 0.0003162 µM) was 0.958 GR and the GR value (THZ1; 0.001 µM) was 1.01 GR. For the same cell line, the GR value (THZ1; 0.003162 µM) was 1 GR, the GR value (THZ1; 0.01 µM) was 0.939 GR and the GR value (THZ1; 0.03162 µM) was 0.85 GR. The GR value (THZ1; 0.1 µM) was 0.491 GR, the GR value (THZ1; 0.3162 µM) was -0.0278 GR and the GR value (THZ1; 1 µM) was -0.507 GR. The GR value ([8]; 0.0003162 µM) was 1.14 GR, the GR value ([8]; 0.001 µM) was 1.02 GR and the GR value ([8]; 0.003162 µM) was 1.07 GR. It also gave a GR value ([8]; 0.01 µM) of 0.905 GR, a GR value ([8]; 0.03162 µM) of 0.863 GR and a GR value ([8]; 0.1 µM) of 0.733 GR. It also gave a GR value ([8]; 0.3162 µM) of 0.611 GR, a GR value ([8]; 1 µM) of 0.57 GR and a GR value ([8]; 3.162 µM) of 0.523 GR. It also gave a GR value (BSJ-03-123; 0.001 µM) of 0.886 GR, a GR value (BSJ-03-123; 0.003162 µM) of 0.859 GR and a GR value (BSJ-03-123; 0.01 µM) of 0.812 GR. The GR value (BSJ-03-123; 0.03162 µM) was 0.745 GR, the GR value (BSJ-03-123; 0.1 µM) was 0.689 GR and the GR value (BSJ-03-123; 0.3162 µM) was 0.746 GR. For the same cell line, the GR value (BSJ-03-123; 1 µM) was 0.558 GR, the GR value (BSJ-03-123; 3.162 µM) was 0.473 GR and the GR value (BSJ-03-123; 10 µM) was -0.0177 GR. The GR value (Neratinib/HKI272; 0.0003162 µM) was 1.04 GR, the GR value (Neratinib/HKI272; 0.001 µM) was 1.05 GR and the GR value (Neratinib/HKI272; 0.003162 µM) was 0.938 GR. For the same cell line, the GR value (Neratinib/HKI272; 0.01 µM) was 0.859 GR, the GR value (Neratinib/HKI272; 0.03162 µM) was 0.533 GR and the GR value (Neratinib/HKI272; 0.1 µM) was 0.389 GR. For the same cell line, the GR value (Neratinib/HKI272; 0.3162 µM) was 0.27 GR, the GR value (Neratinib/HKI272; 1 µM) was 0.119 GR and the GR value (Neratinib/HKI272; 3.162 µM) was -0.0858 GR. The GR value ([9]; 0.0001 µM) was 0.941 GR, the GR value ([9]; 0.0003162 µM) was 1.04 GR and the GR value ([9]; 0.001 µM) was 1.05 GR. For the same cell line, the GR value ([9]; 0.003162 µM) was 1.12 GR, the GR value ([9]; 0.01 µM) was 0.69 GR and the GR value ([9]; 0.03162 µM) was -0.352 GR. The GR value ([9]; 0.1 µM) was -0.474 GR, the GR value ([9]; 0.3162 µM) was -0.472 GR and the GR value ([9]; 1 µM) was -0.441 GR.
